From publication PMC7023430, “4-Aminobenzoic Acid Derivatives: Converting Folate Precursor to Antimicrobial and Cytotoxic Agents” (Biomolecules, 2019)
In brackets after ≈: the same amount, converted by molar mass. Read-outs that look alike come from different tables or passages of the source.

Tests used:
HepG2 cells = assay: Cytotoxicity, CellTiter 96 assay; assay type: cell-based, human; conditions: 24 h incubation
Procedure: HepG2, human hepatocellular carcinoma cells (ATCC HB-8065; passage 5–8) purchased from Health Protection Agency Culture Collections (ECACC, Salisbury, UK) were cultured in Minimum Essentials Eagle Medium supplemented with 10% fetal bovine serum, 1% L-glutamine solution and non-essential amino acid solution (Sigma-Aldrich, St. Louis, MO, USA) in a humidified atmosphere containing 5% CO2 at 37 °C. For subculturing, the cells were harvested after trypsin/EDTA (Sigma-Aldrich, St. Louis, USA) treatment at 37 °C. To evaluate cytotoxicity, the cells treated with the tested substances were used as experimental groups whereas untreated HepG2 cells served as control groups.
The cells were seeded in a density of 10 000 cells per well in a 96-well plate. The following day the cells were treated with each of the tested substances dissolved in DMSO (maximal incubation concentration of DMSO was 1% v/v). The tested substances were prepared at different incubation concentrations in triplicates according to their solubility. Simultaneously, the controls representing 100% cell viability, 0% cell viability (the cells treated with 10% DMSO), no cell control and vehiculum controls were also involved in triplicates. After 24 h incubation in a humidified atmosphere containing 5% CO2 at 37 °C, the reagent from the kit CellTiter 96 AQueous One Solution Cell Proliferation Assay (CellTiter 96; Promega, Fitchburg, WI, USA) was added. After 2 h incubation at 37 °C absorbance of samples was recorded at 490 nm (TECAN, Infinita M200, Grödig, Austria). A standard toxicological parameter IC50 was calculated by nonlinear regression from a semilogarithmic plot of incubation concentration versus percentage of absorbance relative to untreated controls using GraphPad Prism software (version 6; GraphPad Software, Inc., La Jolla, CA, USA).
The CellTiter 96 assay used is based on the reduction of tetrazolium dye in living cells to formazan, which is then determined colorimetrically. This reduction is related to availability of NADH or NADPH. The decline in levels of these metabolically important compounds in the cell causes that the production of formazan is reduced. For quantitative comparison of cytotoxicity, the parameter IC50 was used.

[1] = test system: Staphylococcus epidermidis H 6966/08; assay: Antibacterial microdilution broth method, S. epidermidis; assay type: cell-based; conditions: Staphylococcus epidermidis, H6966/08
[2] = test system: Pseudomonas aeruginosa ATCC 27853, CCM 3955; assay: Antibacterial microdilution broth method, P. aeruginosa; assay type: cell-based; conditions: Pseudomonas aeruginosa
eight fungal strains = assay: Antifungal activity; assay type: cell-based; conditions: statement over the fungal panel; time not stated
Procedure: The antifungal properties were evaluated against five yeast strains, namely: Candida albicans ATCC 44859, Candida tropicalis 156, Candida krusei […], Candida glabrata 20/I, Trichosporon […] 1188 and three strains of filamentous fungi: Aspergillus fumigatus 231, Lichtheimia corymbifera 272, and Trichophyton interdigitale 445. A microdilution broth method was performed according to EUCAST II, III instructions with slight modifications. Briefly, tested compounds were dissolved in DMSO and diluted in a twofold manner with RPMI-1640 medium with L-glutamine, supplemented with 2% glucose (w/v) and buffered to pH 7.0 with 3 morpholinopropane-1-sulfonic acid (all components were purchased from Sigma-Aldrich, USA). […] Positive controls consisted of test microbe solely, while negative controls consisted of medium and DMSO. Internal quality control was included too. Visual inspection was used for MIC endpoints evaluation. The experiments were conducted in duplicates. For the results to be valid, the difference in MIC determined from two parallel measurements must not be greater than one step on the dilution scale. PABA and triazole antimycotic drug fluconazole were involved as the reference compounds.

[3] = test system: four Gram-positive and four Gram-negative strains; assay: Antibacterial activity; assay type: cell-based
[4] = test system: Mtb. 331/88 and three non-tuberculous mycobacterial strains; assay: Antimycobacterial activity; assay type: cell-based; conditions: statement over four mycobacterial strains, time not stated
[5] = S. epidermidis, 24 h incubation, read-out: MIC SE 24 h
[6] = S. epidermidis, 48 h incubation, read-out: MIC SE 48 h
[7] = P. aeruginosa, 24 h incubation, read-out: MIC PA 24 h
[8] = P. aeruginosa, 48 h incubation, read-out: MIC PA 48 h
[9] = time not stated, read-out: MIC, S. epidermidis (1e MRSA, too)
[10] = time not stated, read-out: MIC, S. epidermidis

For O=C(O)c1ccc(N=Cc2cc(F)ccc2O)cc1 [1b, 4-[(5-Fluoro-2-hydroxybenzylidene)amino]benzoic acid], the IC50 (HepG2 cells; Homo sapiens, HepG2, 24 h) was 498 µM, the MIC [1, 5] was greater than 500 µM and the MIC [1, 6] was greater than 500 µM. It also gave an MIC [2, 7] greater than 500 µM, an MIC [2, 8] greater than 500 µM and an MIC (eight fungal strains) greater than 500 µM. For the same compound, the “MIC, antifungal activity” value (eight fungal strains) was “not translated into any antifungal action”.
In the case of O=C(O)c1ccc(N=Cc2cc(Cl)ccc2O)cc1 [1c, 4-[(5-Chloro-2-hydroxybenzylidene)amino]benzoic acid], the MIC [3, 9] is reported as no less than 62.5 µM, the IC50 (HepG2 cells; Homo sapiens, HepG2, 24 h) is reported as 143 µM and the MIC [1, 5] is reported as 62.5 µM (≈ 17.2 µg/mL). It also gave an MIC [1, 6] of 62.5 µM (≈ 17.2 µg/mL), an MIC [2, 7] greater than 500 µM and an MIC [2, 8] greater than 500 µM.
Compound O=C(O)c1ccc(N=Cc2cc(Br)ccc2O)cc1 [1d, 4-[(5-Bromo-2-hydroxybenzylidene)amino]benzoic acid] has an MIC [3, 9] of no less than 62.5 µM, an IC50 (HepG2 cells; Homo sapiens, HepG2, 24 h) of 179 µM and an MIC [1, 5] of 62.5 µM (≈ 20 µg/mL). The MIC [1, 6] was 62.5 µM (≈ 20 µg/mL), the MIC [2, 7] was greater than 250 µM and the MIC [2, 8] was greater than 250 µM.
With O=C(O)c1ccc(N=Cc2cc(I)ccc2O)cc1 [1e, 4-[(2-Hydroxy-5-iodobenzylidene)amino]benzoic acid] the MIC [3, 9] was no less than 62.5 µM, the IC50 (HepG2 cells; Homo sapiens, HepG2, 24 h) was 113 µM and the MIC [1, 5] was 62.5 µM (≈ 22.9 µg/mL). The MIC [1, 6] was 62.5 µM (≈ 22.9 µg/mL), the MIC [2, 7] was greater than 250 µM and the MIC [2, 8] was greater than 250 µM. For the same compound, the MIC (eight fungal strains) was no less than 31.2 µM.
Compound O=C(O)c1ccc(N=Cc2cc([N+](=O)[O-])ccc2O)cc1 [1f, 4-[(2-Hydroxy-5-nitrobenzylidene)amino]benzoic acid] has an MIC ([3]; Staphylococcus aureus, MRSA, time not stated, read-out: MIC, multiple Gram-positive strains including MRSA) of no less than 250 µM, an IC50 (HepG2 cells; Homo sapiens, HepG2, 24 h) of 244 µM and an MIC [1, 5] of 250 µM (≈ 71.6 µg/mL). It also gave an MIC [1, 6] of 250 µM (≈ 71.6 µg/mL), an MIC [2, 7] greater than 500 µM and an MIC [2, 8] greater than 500 µM. The MIC (eight fungal strains) was no less than 250 µM.
Cc1ccc(O)c(C=Nc2ccc(C(=O)O)cc2)c1 [1g, 4-[(2-Hydroxy-5-methylbenzylidene)amino]benzoic acid] was tested, and the IC50 (HepG2 cells) was 956 µM, the IC50 (HepG2 cells; Homo sapiens, HepG2, 24 h) was greater than 500 µM and the MIC [1, 5] was 250 µM (≈ 63.8 µg/mL). The MIC [1, 6] was 250 µM (≈ 63.8 µg/mL), the MIC [1, 10] was no less than 250 µM and the MIC [2, 7] was greater than 500 µM. The MIC [2, 8] was greater than 500 µM and the “MIC, antifungal activity” value (eight fungal strains) was “not translated into any antifungal action”.
Compound COc1ccc(O)c(C=Nc2ccc(C(=O)O)cc2)c1 [1h, 4-[(2-Hydroxy-5-methoxybenzylidene)amino]benzoic acid] has an IC50 (HepG2 cells) of 530 µM, an IC50 (HepG2 cells; Homo sapiens, HepG2, 24 h) greater than 500 µM and an MIC [1, 5] of 500 µM (≈ 136 µg/mL). It also gave an MIC [1, 6] of 500 µM (≈ 136 µg/mL), an MIC [1, 10] of no less than 250 µM and an MIC [2, 7] greater than 500 µM. For the same compound, the MIC [2, 8] was greater than 500 µM and the MIC (eight fungal strains) was no less than 250 µM.
CC(C)(C)c1ccc(O)c(C=Nc2ccc(C(=O)O)cc2)c1 [1j, 4-{[5-(Tert-butyl)-2-hydroxybenzylidene]amino}benzoic acid] showed an IC50 (HepG2 cells; Homo sapiens, HepG2, 24 h) of 80.8 µM, an MIC [1, 5] greater than 500 µM and an MIC [1, 6] greater than 500 µM. The MIC [2, 7] was greater than 500 µM, the MIC [2, 8] was greater than 500 µM and the “MIC, antifungal activity” value (eight fungal strains) was “not translated into any antifungal action”.
O=C(O)c1ccc(N=Cc2c(O)cccc2Cl)cc1 [1k, 4-[(2-Chloro-6-hydroxybenzylidene)amino]benzoic acid] gave an IC50 (HepG2 cells; Homo sapiens, HepG2, 24 h) of 280 µM, an MIC [1, 5] greater than 500 µM and an MIC [1, 6] greater than 500 µM. The MIC [2, 7] was greater than 500 µM and the MIC [2, 8] was greater than 500 µM.
Compound O=C(O)c1ccc(N=Cc2ccc(Cl)cc2O)cc1 [1l, 4-[(4-Chloro-2-hydroxybenzylidene)amino]benzoic acid] has an IC50 (HepG2 cells; Homo sapiens, HepG2, 24 h) of 264 µM, an MIC [1, 5] greater than 500 µM and an MIC [1, 6] greater than 500 µM. For the same compound, the MIC [2, 7] was greater than 500 µM, the MIC [2, 8] was greater than 500 µM and the MIC (eight fungal strains) was no less than 250 µM.
Compound O=C(O)c1ccc(N=Cc2cccc(Cl)c2O)cc1 [1m, 4-[(3-Chloro-2-hydroxybenzylidene)amino]benzoic acid] has an IC50 (HepG2 cells; Homo sapiens, HepG2, 24 h) of 247 µM, an MIC [1, 5] of 500 µM (≈ 138 µg/mL) and an MIC [1, 6] of 500 µM (≈ 138 µg/mL). The MIC [1, 10] was no less than 250 µM, the MIC [2, 7] was greater than 500 µM and the MIC [2, 8] was greater than 500 µM. It also gave an MIC (eight fungal strains) of no less than 31.2 µM.
With O=C(O)c1ccc(N=Cc2cc(Cl)cc(Cl)c2O)cc1 [1n, 4-[(3,5-Dichloro-2-hydroxybenzylidene)amino]benzoic acid] the IC50 (HepG2 cells; Homo sapiens, HepG2, 24 h) was 98.7 µM, the MIC [1, 5] was 250 µM (≈ 77.5 µg/mL) and the MIC [1, 6] was 250 µM (≈ 77.5 µg/mL). The MIC [2, 7] was greater than 500 µM, the MIC [2, 8] was greater than 500 µM and the MIC (eight fungal strains) was no less than 125 µM.
In the case of O=C(O)c1ccc(N=Cc2cc(Cl)cc(Br)c2O)cc1 [1o, 4-[(3-Bromo-5-chloro-2-hydroxybenzylidene)amino]benzoic acid], the IC50 (HepG2 cells; Homo sapiens, HepG2, 24 h) is reported as 85.7 µM, the MIC [1, 5] is reported as 15.6 µM (≈ 5.54 µg/mL) and the MIC [1, 6] is reported as 31.2 µM (≈ 11.1 µg/mL). The MIC [2, 7] was greater than 500 µM and the MIC [2, 8] was greater than 500 µM.
Work on O=C(O)c1ccc(N=Cc2cc(Cl)cc(I)c2O)cc1 [1p, 4-[(5-Chloro-2-hydroxy-3-iodobenzylidene)amino]benzoic acid] yielded an IC50 (HepG2 cells; Homo sapiens, HepG2, 24 h) of 53.4 µM, an MIC [1, 5] of 31.2 µM (≈ 12.5 µg/mL) and an MIC [1, 6] of 31.2 µM (≈ 12.5 µg/mL). For the same compound, the MIC [2, 7] was greater than 500 µM and the MIC [2, 8] was greater than 500 µM.
Work on O=C(O)c1ccc(N=Cc2cc(I)cc(I)c2O)cc1 [1q, 4-[(2-Hydroxy-3,5-diiodobenzylidene)amino]benzoic acid] yielded an IC50 (HepG2 cells; Homo sapiens, HepG2, 24 h) of 57.8 µM, an MIC [1, 5] of 62.5 µM (≈ 30.8 µg/mL) and an MIC [1, 6] of 62.5 µM (≈ 30.8 µg/mL). It also gave an MIC [2, 7] greater than 500 µM and an MIC [2, 8] greater than 500 µM.
With O=C(O)c1ccc(N=Cc2ccc([N+](=O)[O-])o2)cc1 [1r, 4-{[(5-Nitrofuran-2-yl)methylene]amino}benzoic acid] the MIC ([3]; converted from 62.5–125 µM, read-out: MIC, staphylococci) was 16.2 to 32.5 µg/mL, the MIC ([3]; read-out: MIC, three staphylococcal strains) was 62.5 to 125 µM and the IC50 (HepG2 cells; Homo sapiens, HepG2, 24 h) was 15 µM. The MIC [1, 5] was 125 µM (≈ 32.5 µg/mL), the MIC [1, 6] was 125 µM (≈ 32.5 µg/mL) and the MIC ([4]; Mycobacterium tuberculosis) was 62.5 to 250 µM (≈ 16.3 to 65.1 µg/mL). It also gave an MIC [2, 7] of 500 µM (≈ 130 µg/mL), an MIC [2, 8] of 500 µM (≈ 130 µg/mL) and an MIC ([2]; time not stated, read-out: MIC, P. aeruginosa) of 500 µM (≈ 130 µg/mL).
For O=C(O)c1ccc(NCc2ccccc2O)cc1 [1u, 4-[(2-Hydroxybenzyl)amino]benzoic acid], the “MIC, antibacterial activity” value ([3]; statement over the bacterial panel, time not stated) was “avoided any antibacterial action”, the IC50 (HepG2 cells; Homo sapiens, HepG2, 24 h) was greater than 500 µM and the MIC [1, 5] was greater than 500 µM. The MIC [1, 6] was greater than 500 µM, the “MIC, antimycobacterial activity” value [4] was “only negligible antimycobacterial activity” and the MIC [2, 7] was greater than 500 µM. For the same compound, the MIC [2, 8] was greater than 500 µM and the “MIC, antifungal activity” value (eight fungal strains) was “no antimycotic potency”.
